Assay results from US20220133846A1, “NOVEL ANTIMICROBIAL COMPOUND AND USES THEREOF” (priority 2019, published 2022).
Converted amounts (≈) assume the structure as drawn. “And” between values parts separate entries of the source, which are not always exact repeats. Equal entries are not always repeated. “Also recorded” adds a separate entry of the source. Where two headings read alike, the source gives them in different places.

Columns and labels:
S. aureus or MRSA = assay: Bacteriolytic activity (time-kill, OD600); format: cell-based; settings: twice the MIC, mid-exponential growth, over 20 hours
S. aureus = assay: Thermal and chemical (pH) short-term stability, antibacterial activity remaining; format: physicochemical; settings: 4 to 60° C. for 18 hours, and 37° C. at pH 3.0-9.0
Protocol: Samples were clarified by centrifugation (16,000×g for 5 min) and soluble fractions were tested for antibacterial activity (against S. aureus) and examined by analytical HPLC.

[1] = test system: Staphylococcus haemolyticus strain JCM 2416
[2] = test system: Enterococcus faecalis strain NBRC 100480
MDR S. aureus (CH-11) = assay: Frequency of resistance (FoR) in vitro; format: cell-based
[3] = test system: S. aureus NRS 384 (USA300-0114); assay: Murine neutropenic thigh infection model; format: in vivo, mice
[4] = 1 mg/mL solution, pH 7.0, 10 minutes, centrifugation
[5] = Stability in whole blood and plasma (zone of inhibition, diffusion method); format: in vitro ADME, mouse; settings: for Whole blood ZOI: 400 μg/mL added to mouse whole blood; for Plasma fraction ZOI: plasma from treated whole blood
Protocol: The antimicrobial activity remaining in blood was measured by the diffusion method and expressed as the zone of inhibition (ZOI), proportional to the amount of activity remaining in blood (Table 11). Zone of inhibition (ZOI) is a zone of bacteria free agar plate after depositing 2 μL of a tested sample. In parallel, CMB001 treated blood was centrifuged to remove blood cells and the level of CMB001 was tested in the supernatant (plasma).

[6] = Stability in human serum or plasma (MIC after incubation); format: in vitro ADME
Protocol: Stability studies were also performed in the presence of plasma or serum, or in whole blood.

in vivo = settings: male, CD1, mouse, iv, 30 mg/kg; for clearance / MRT / Vd / half-life: blood; for clearance: CL/CL_F; for clearance / MRT / Vd: IV 30 mg/kg; for Vd: Vdss; for half-life: t1/2, IV 30 mg/kg
J774A mouse BALB/c cells = assay: Toxicity to mammalian cells (cell viability); settings: up to 1,500 μg/mL, 24 hours
S. aureus (ATCC #29213) = format: cell-based
[7] = IV 30 mg/kg; for AUC % Back Extrapolation to C0 / AUC % Extrapolation to infinity / tlast: blood; for Mean Concentration in blood: male CD1 mice
A. baumannii (CH-46) = assay: Frequency of resistance (FoR) in vitro; format: cell-based
[8] = test system: Staphylococcus aureus strain NBRC 100910; assay: MIC against clinical isolates (Christiana Hospital); format: cell-based
[9] = test system: Staphylococcus genus clinical strain CH-16 (16S ID n/a); assay: microbe, parasite or virus in culture; format: cell-based; settings: clinical strain CH-16, drug resistance Y
[10] = test system: Staphylococcus haemolyticus strain JCM 2416; assay: microbe, parasite or virus in culture; settings: JCM2416
[11] = individual animals 1-3, 30 mg/kg

SMILES: C=C(NC(=O)[C@@H](NC(=O)[C@H](Cc1c[nH]cn1)NC(=O)[C@@H]1CS[C@@H](C)[C@H]2NC(=O)[C@H](C)NC(=O)[C@H](NC(=O)[C@H](CCC(N)=O)NC(=O)[C@@H](NC(=O)[C@H](Cc3ccccc3)NC(=O)[C@@H]3CS[C@@H](C)[C@@H](NC(=O)[C@@H](NC(=O)[C@@H]4CS[C@@H](C)[C@@H](NC(=O)[C@@H]5CSC[C@@H](NC(=O)[C@H](CCCCN)NC(=O)[C@@H](N)Cc6c[nH]c7ccccc67)C(=O)N[C@@H](CCC(N)=O)C(=O)NC(=C)C(=O)N[C@@H](Cc6ccccc6)C(=O)N5)C(=O)N5CCC[C@H]5C(=O)NCC(=O)N4)C(C)C)C(=O)NCC(=O)N[C@@H](C(C)C)C(=O)N[C@@H](CC(C)C)C(=O)N[C@@H](CCC(N)=O)C(=O)N/C(=C\C)C(=O)N3)[C@@H](C)CC)[C@H](C)SC[C@H](NC2=O)C(=O)N[C@@H](CC(N)=O)C(=O)N1)[C@@H](C)CC)C(=O)N[C@@H](CCCCN)C(=O)O [CMB001, WKAQX1FAX3PGAVX3GVLQX2AFIQX3AX3ANAHIX1K (SEQ ID NO: 1)]
- Bacteriolytic activity, change of OD600 (S. aureus or MRSA): marked decrease of OD600
- Antibacterial activity (MIC) and chemical integrity after incubation (S. aureus): retained its full antibacterial activity (MIC) and chemical integrity
- MIC [1]: 6.25 µg/mL (≈ 1.87 µM)
- MIC90 [2]: 12.5 µg/mL (≈ 3.73 µM)
- MIC range [2]: 6.2 to 12.5 µg/mL
- Frequency of resistance (FoR) (MDR S. aureus (CH-11); 2X MIC): 3.5 × 10^−9
- Frequency of resistance (FoR) (MDR S. aureus (CH-11); 3X MIC): 1.8 × 10^−9
- Frequency of resistance (FoR) (MDR S. aureus (CH-11); 4X MIC): 2.9 × 10^−8
- Frequency of resistance (FoR) (MDR S. aureus (CH-11); 5X MIC): 5.3 × 10^−10
- Frequency of resistance (FoR) (MDR S. aureus (CH-11); 10X MIC): <3.2 × 10^−10
- Bacterial burden compared to vehicle control ([3]; 0.5 to 10 mg/kg IV): dose dependent reduction of bacterial burden; also recorded: dose-dependent reduction of S. aureus in the thigh
- Thigh burden compared to vehicle-treated group ([3]; 5 to 30 mg/kg IV at 1, 8 and 15 hours post-infection): Significant reduction of thigh burden
- Survival to end of study ([3]; 5 to 30 mg/kg IV, 25 h post-infection): Most CMB001-treated animals survived until the end of the study
- Thigh burden relative to pre-treatment levels ([3]; all doses, 5 to 30 mg/kg IV): reduced below pre-treatment levels
- Solubility relative to initial concentration [4]: > 96%
- Whole blood ZOI ([5]; 10 minutes): 10 mm
- Whole blood ZOI ([5]; 60 minutes): 9 mm
- Whole blood ZOI ([5]; 120 minutes): 8 mm
- Whole blood ZOI ([5]; 180 minutes): 8 mm
- Whole blood ZOI ([5]; 240 minutes): 8 mm
- Adsorption onto blood cells ([5]; mouse blood, 400 μg/mL): not adsorbed onto blood cells
- Activity in whole blood ([5]; mouse blood, 400 μg/mL, 0-4 hours): retains full activity in whole blood
- Plasma fraction ZOI ([5]; 10 minutes): 11 mm
- Plasma fraction ZOI ([5]; 60 minutes): 9 mm
- Plasma fraction ZOI ([5]; 120 minutes): 8 mm
- Plasma fraction ZOI ([5]; 180 minutes): 8 mm
- Plasma fraction ZOI ([5]; 240 minutes): 7 mm
- Spiked plasma control ZOI ([5]; plasma spiked with CMB001, 10 minutes): 9 mm
- Spiked plasma control ZOI ([5]; plasma spiked with CMB001, 60 minutes): 11 mm
- Spiked plasma control ZOI ([5]; plasma spiked with CMB001, 120 minutes): 11 mm
- Spiked plasma control ZOI ([5]; plasma spiked with CMB001, 180 minutes): 11 mm
- Spiked plasma control ZOI ([5]; plasma spiked with CMB001, 240 minutes): 10 mm
- Antibacterial activity after incubation in human serum or plasma ([6]; 8-hour incubation at 37° C.): retained full antibacterial activity
- Antibacterial activity after incubation in human serum or plasma ([6]; 24-hour incubation): somewhat less active
- clearance (in vivo; Mean/Median): 170 mL/min/kg
- clearance (in vivo; individual animals 1-2): 166 mL/min/kg
- MRT (in vivo; Mean/Median): 40.2 min
- MRT (in vivo; individual animals 1-2): 42.6 min
- Vd (in vivo; Mean/Median): 6.8 L/kg
- Vd (in vivo; individual animals 1-2): 7 L/kg
- half-life (in vivo; Mean/Median): 32.4 ± 9 min
- half-life (in vivo; individual animals 1-2): 38.4 min
- level at 0.08 h (in vivo; whole blood): 4770 ng/mL
- level at 0.25 h (in vivo; whole blood): 2450 ng/mL
- level at 0.5 h (in vivo; whole blood): 1280 ng/mL
- level at 1 h (in vivo; whole blood): 916 ng/mL
- level at time molar at 0.08 h (in vivo; whole blood): 1420 nM
- level at time molar at 0.25 h (in vivo; whole blood): 733 nM
- level at time molar at 0.5 h (in vivo; whole blood): 383 nM
- level at time molar at 1 h (in vivo; whole blood): 274 nM
- Cell viability (J774A mouse BALB/c cells): did not reduce cell viability
- MIC range (Acinetobacter baumannii): 3.4 to 27.7 µg/mL
- Frequency of resistance (FoR) (S. aureus (ATCC #29213); 2X MIC): 1.3 × 10^−8
- Frequency of resistance (FoR) (S. aureus (ATCC #29213); 3X MIC): 2.2 × 10^−9
- Frequency of resistance (FoR) (S. aureus (ATCC #29213); 4X MIC): 2.6 × 10^−9
- Frequency of resistance (FoR) (S. aureus (ATCC #29213); 5X MIC): 3.7 × 10^−10
- Frequency of resistance (FoR) (S. aureus (ATCC #29213); 10X MIC): <3.7 × 10^−10
- Time at detectable levels in blood ([7]; LLOQ 500 ng/mL): at least 60 minutes
- AUC % Back Extrapolation to C0 ([7]; Mean/Median): 16%
- AUC % Extrapolation to infinity ([7]; Mean/Median): 29%
- tlast ([7]; Mean/Median): 1.00 h
- tlast ([7]; individual animals 1-3): 1.00 h
- AUC % Back Extrapolation to C0 [7, 11]: 23% and 12% and 13%
- AUC % Extrapolation to infinity [7, 11]: 26% and 22% and 41%
- Mean Concentration in blood ([7]; 2.00 hours, LLOQ 500 ng/mL): BLQ*
- Mean Concentration in blood ([7]; 4.00 hours, LLOQ 500 ng/mL): BLQ
- Mean Concentration in blood ([7]; 8.00 hours, LLOQ 500 ng/mL): BLQ
- Mean Concentration in blood ([7]; 24.00 hours, LLOQ 500 ng/mL): BLQ
- Frequency of resistance (FoR) (A. baumannii (CH-46); 2X MIC): 1.1 × 10^−7
- Frequency of resistance (FoR) (A. baumannii (CH-46); 3X MIC): 2.9 × 10^−9
- Frequency of resistance (FoR) (A. baumannii (CH-46); 5X MIC): <1 × 10^−11
- Frequency of resistance (FoR) (A. baumannii (CH-46); 10X MIC): <1 × 10^−11

SMILES: COc1cccc(OC)c1C(=O)N[C@@H]1C(=O)N2[C@@H]1SC(C)(C)[C@@H]2C(=O)O [Methicillin]
- Frequency of resistance (FoR) (MDR S. aureus (CH-11); 2X MIC): resistant
- Frequency of resistance (FoR) (MDR S. aureus (CH-11); 3X MIC): resistant
- Frequency of resistance (FoR) (MDR S. aureus (CH-11); 4X MIC): resistant
- Frequency of resistance (FoR) (MDR S. aureus (CH-11); 5X MIC): resistant
- Frequency of resistance (FoR) (MDR S. aureus (CH-11); 10X MIC): resistant
- MIC ([8]; NBRC100910, clinical strain CH-01, drug resistance N): 1 µg/mL (≈ 2.63 µM)
- MIC ([8]; NBRC100910, clinical strain CH-02, drug resistance N): 1 µg/mL (≈ 2.63 µM)
- MIC ([8]; NBRC100910, clinical strain CH-03, drug resistance N): 1 µg/mL (≈ 2.63 µM)
- MIC ([8]; NBRC100910, clinical strain CH-04, drug resistance N): 2 µg/mL (≈ 5.26 µM)
- MIC ([8]; NBRC100910, clinical strain CH-05, drug resistance N): 1 µg/mL (≈ 2.63 µM)
- MIC ([8]; NBRC100910, clinical strain CH-06, drug resistance N): 1 µg/mL (≈ 2.63 µM)
- MIC ([8]; NBRC100910, clinical strain CH-07, drug resistance N): 1 µg/mL (≈ 2.63 µM)
- MIC ([8]; NBRC100910, clinical strain CH-08, drug resistance N): 1 µg/mL (≈ 2.63 µM)
- MIC ([8]; NBRC100910, clinical strain CH-09, drug resistance N): 8 µg/mL (≈ 21 µM)
- MIC ([8]; NBRC100910, clinical strain CH-10, drug resistance N): 1 µg/mL (≈ 2.63 µM)
- MIC ([8]; NBRC100910, clinical strain CH-11, drug resistance Y): 32 µg/mL (≈ 84.1 µM)
- MIC ([8]; NBRC100910, clinical strain CH-12, drug resistance Y): 16 µg/mL (≈ 42.1 µM)
- MIC ([8]; NBRC100910, clinical strain CH-13, drug resistance Y): > 64 µg/mL
- MIC ([8]; NBRC100910, clinical strain CH-14, drug resistance Y): > 64 µg/mL
- MIC ([8]; NBRC100910, clinical strain CH-15, drug resistance Y): > 64 µg/mL
- MIC ([8]; NBRC100910, clinical strain CH-17, drug resistance Y): 16 µg/mL (≈ 42.1 µM)
- MIC ([8]; NBRC100910, clinical strain CH-20, drug resistance Y): 4 µg/mL (≈ 10.5 µM)
- MIC [9]: 64 µg/mL (≈ 168 µM)
- MIC [10]: 8 µg/mL (≈ 21 µM)
- Frequency of resistance (FoR) (S. aureus (ATCC #29213); 2X MIC): <3.72 × 10^−10
- Frequency of resistance (FoR) (S. aureus (ATCC #29213); 3X MIC): <3.72 × 10^−10
- Frequency of resistance (FoR) (S. aureus (ATCC #29213); 4X MIC): <3.72 × 10^−10
- Frequency of resistance (FoR) (S. aureus (ATCC #29213); 5X MIC): <3.72 × 10^−10
- Frequency of resistance (FoR) (S. aureus (ATCC #29213); 10X MIC): <3.72 × 10^−10
